Like-named read-outs stand apart in the source and are kept apart here. Numbered stars: 1 amine (or outer) side, 2 acyl side, 3 side chain; on linkers, the order of the positions; unused ones are H or OH. Square brackets hold non-standard residues; d marks the D form. Peptide text beside a SMILES is read from it. * marks the point of attachment. Pteroyl = Nc1nc2ncc(CNc3ccc(C(=O)*)cc3)nc2c(=O)[nH]1; γGlu = O=C(O)[C@H](CCC(=O)[*:2])N[*:1]; Dab = NCC[C@H](N)C(=O)O
What was measured:
SNORA18 = SNORA18 siRNA (SEQ ID NOs: 5 and 6) in combination; Dab8 1 eq, Fol-Dab8A 3 eq, Fol-Dab8B 1 eq; S2-013 cells, 48 hours
Method: (§1) Scrambled control siRNA (SEQ ID NOs: 3 and 4), SNORA18 siRNA (SEQ ID NOs: 5 and 6), NUP85 siRNA (SEQ ID NOs: 7 and 8), WASF2 siRNA (SEQ ID NOs: 9 and 10), and SNORA22 siRNA (SEQ ID NOs: 11 and 12), to which a cationic oligopeptide or a folic acid-cationic peptide was added (a complex of Dab8 with siRNA in 1 equivalent, a complex of Fol-Dab8A with siRNA in 3 equivalents, and a complex of Fol-Dab8B with siRNA in 1 equivalent), were each added to the culture solution the S2-013 cells in a 6-well plate (Thermo Fisher Scientific Inc.) (1.0×10^5 cells/well), and the cells were recovered after 48 hours.
(§2) Semi-quantitative RT-PCR was performed using RNA from the recovered cells to confirm the knockdown effects of SNORA18, NUP85, WASF2, and SNORA22 in the cells.
(§3) Specifically, the total RNA obtained from the S2-013 cells was reverse-transcribed using StrataScript reverse transcriptase (Agilent) and random primers. Appropriate dilutions of each single-stranded cDNA were prepared for subsequent PCR amplification. GAPDH mRNA was used as an internal quantitative control.
(§4) PCR reactions were performed on a TaKaRa PCR Thermal Cycler Dice Gradient with initial denaturation at 94° C. for 2 minutes, followed by 94° C. for 30 seconds, 58° C. for 30 seconds, and 72° C. for 1 minute for 21 cycles (for GAPDH) or 25 cycles (for SNORA18, NUP85, WASF2, and SNORA22). Scanning and densitometric analysis for band intensity measurements were performed using the Quantity One analysis system (Bio-Rad).

NUP85 = NUP85 siRNA (SEQ ID NOs: 7 and 8) in combination; Dab8 1 eq, Fol-Dab8A 3 eq, Fol-Dab8B 1 eq; S2-013 cells, 48 hours
Method: as §1, §2, §3, §4

SNORA22 = SNORA22 siRNA (SEQ ID NOs: 11 and 12) in combination; Dab8 1 eq, Fol-Dab8A 3 eq, Fol-Dab8B 1 eq; S2-013 cells, 48 hours
Method: as §1, §2, §3, §4

WASF2 = WASF2 siRNA (SEQ ID NOs: 9 and 10) in combination; Dab8 1 eq, Fol-Dab8A 3 eq, Fol-Dab8B 1 eq; S2-013 cells, 48 hours
Method: as §1, §2, §3, §4

[1] = tested on: bovine pancreas-derived RNase A; conditions: 1 or more equivalents; 10 nM siRNA, 37° C., 60 minutes
Method: RNA-degrading enzyme resistance of the nucleic acid duplex was tested in the presence of a cationic oligopeptide.
In this Example, peptides were added to the annealed RNA duplex to form a complex, and the rate of RNA degradation was measured.
Subsequently, the mixture was kept at 95° C. for 5 minutes and then slowly cooled to 4° C. at −0.5° C./min.
Thereafter, 15 μL of 100 μg/mL bovine pancreas-derived RNase A (manufactured by F. Hoffmann-La Roche, Ltd.) was added with stirring at 37° C., and fluorescence intensity measurement was started to track changes over time (excitation wavelength: 490 nm; measurement wavelength: 520 nm; and measurement time: 60 minutes).

[2] = tested on: pancreatic cancer tissue of mice carrying human pancreatic cancer organoids derived from S2-013 pancreatic cancer cells; conditions: for delivery of SNORA22 siRNA to pancreatic cancer tissue: 5 μg siRNA tail vein, 24 hours
Method: Human pancreatic cancer organoids were prepared using 52-013 pancreatic cancer cells by modifying the method described in JP Patent Application Publication No. 2018-110575 A1.
Specifically, the S2-013 pancreatic cancer cells (20×10^4 cells), human mesenchymal stem cells MSC (LONZA, 40×10^4 cells), and human umbilical vein endothelial cells HUVEC (LONZA, 14×10^4 cells) were added to DMEM/Matrigel mixed solution in a 48-well plate (Thermo Fisher Scientific Inc.) and incubated in a CO2 incubator at 37° C. for 30 minutes.
Then, 300 μL/well of DMEM/EGM mixed solution was added thereto and incubated again at 37° C. for 24 hours to prepare one pancreatic cancer organoid in each well.
Subsequently, the skin on the flank of nude mice (6-week-old BALB/cSlc-nu/nu (Pathogen-free female athymic nude mice), Japan SLC, Inc.) was incised, and the pancreatic cancer organoids obtained above were subcutaneously transplanted (2 mice in each group).
Six weeks after transplantation, the chemically-modified SNORA22 siRNA (SEQ ID NOs: 27 and 28, 5 μg) labeled with Alexa-594 was administered with 1, 2, or 3 equivalents of the cationic oligopeptide (Dab8) or the folic acid-cationic oligopeptide complex (Fol-Dab8A or Fol-Dab8B) by tail vein injection. After 24 hours, images were taken with an in vivo imager.
Measuring instrument: Spectrum In Vivo Imaging System (PerkinElmer, Inc., Waltham, Mass.)
Measurement condition: kexc 640 nm, kemi 680 nm
In the same manner as in Example 11, the delivery of chemically-modified SNORA18 siRNA (SEQ ID NOs: 21 and 22) to pancreatic cancer-carrying mice when administered with the folic acid-cationic oligopeptide complex (Fol-Dab8A or Fol-Dab8B) was imaged using an in vivo imager.
In the same manner as in Examples 11 and 13, the delivery of chemically-modified WASF2 siRNA (SEQ ID NOs: 25 and 26) to pancreatic cancer-carrying mice when administered with the folic acid-cationic oligopeptide complex (Fol-Dab8A or Fol-Dab8B) was imaged using an in vivo imager.

[3] = chemically-modified SNORA18 siRNA, 1 to 3 equivalents
[4] = chemically-modified WASF2 siRNA, 1 to 3 equivalents
[5] = compared to Dab8, 1 to 3 equivalents

| SMILES | knockdown effect on SNORA18 (SNORA18) | knockdown effect on NUP85 (NUP85) | knockdown effect on SNORA22 (SNORA22) | knockdown effect on WASF2 (WASF2) | rate of increase in fluorescence intensity (degradation of RNA duplex by RNase A) [1] | delivery of WASF2 siRNA to pancreatic cancer tissue ([2]; 1 equivalent) | delivery of SNORA22 siRNA to pancreatic cancer tissue ([2]; 2 equivalents) | delivery of WASF2 siRNA to pancreatic cancer tissue ([2]; 3 equivalents) | delivery of SNORA18 siRNA to pancreatic cancer tissue [2, 3] | delivery of WASF2 siRNA to pancreatic cancer tissue [2, 4] | delivery of SNORA22 siRNA to pancreatic cancer tissue [2, 5] | delivery of SNORA18 siRNA to pancreatic cancer tissue ([2]; 1 equivalent) | delivery of SNORA18 siRNA to pancreatic cancer tissue ([2]; 3 equivalents) | delivery of SNORA22 siRNA to pancreatic cancer tissue ([2]; 3 equivalents) |
| --- | --- | --- | --- | --- | --- | --- | --- | --- | --- | --- | --- | --- | --- | --- |
| NCC[C@H](NC(=O)[C@H](CCN)NC(=O)[C@H](CCN)NC(=O)[C@H](CCN)NC(=O)[C@H](CCN)NC(=O)[C@H](CCN)NC(=O)[C@H](CCN)NC(=O)[C@H](CCN)NC(=O)CNC(=O)CNC(=O)CNC(=O)[C@H](CCC(=O)O)NC(=O)c1ccc(NCc2cnc3nc(N)[nH]c(=O)c3n2)cc1)C(N)=O [Fol-Dab8B] (Pteroyl-EGGG[Dab][Dab][Dab][Dab][Dab][Dab][Dab][Dab]-NH2) | remarkable knockdown effects | remarkable knockdown effects | remarkable knockdown effects | remarkable knockdown effects | slower | high concentration | high concentration | high concentration | enhanced | enhanced | enhanced | – | – | – |
| NCC[C@H](NC(=O)[C@H](CCN)NC(=O)[C@H](CCN)NC(=O)[C@H](CCN)NC(=O)[C@H](CCN)NC(=O)[C@H](CCN)NC(=O)[C@H](CCN)NC(=O)[C@H](CCN)NC(=O)CNC(=O)CNC(=O)CNC(=O)CC[C@H](NC(=O)c1ccc(NCc2cnc3nc(N)[nH]c(=O)c3n2)cc1)C(=O)O)C(N)=O [Fol-Dab8A] ({Pteroyl-γGlu}-GGG[Dab][Dab][Dab][Dab][Dab][Dab][Dab][Dab]-NH2) | remarkable knockdown effects | remarkable knockdown effects | remarkable knockdown effects | remarkable knockdown effects | slower | – | – | – | enhanced | enhanced | enhanced | high concentration | high concentration | high concentration |

Reference: US20220380763A1, “NUCLEIC ACID DELIVERY ENHANCER” (NATIONAL UNIVERSITY CORPORATION KOCHI UNIVERSITY, priority 2019, published 2022)
